Columns and labels:
[1] = Serum lipid lowering in male rats on standard diet (Table 1, activity as % variation vs. controls); type: in vivo, Iva:SDIV (SPF) male rats; details: rat, 50 mg/kg/os, 4 days by stomach tube, * p ≤ 0.05, ** p ≤ 0.01; for Triglycerides, activity as % variation vs. controls: serum triglycerides; for Tot. Chol., activity as % variation vs. controls: total serum cholesterol
Method: The activity of compounds of this invention was evaluated on Groups of Iva:SDIV (SPF) male rats fed standard diet (Altromin^R).
The compounds were suspended in "Methocel" (methyl cellulose, a 0.5% pseudosolution in water) and administered by stomach tube for 4 days.
Groups of animals were treated with the suspending agent only (control groups).
The total serum cholesterol was determined with the method of Allain C. C. (Clin. Chem. 20, 470, 1974).
The serum triglycerides were determined with the method of Spayd R. N. (Clin. Chem. 24, 1343, 1978).
The total serum HDL cholesterol was determined according to Demacker P. N. M. [Clin. Chem., 23, 1238 (1977)].
W. - J. Amer. Stat. Ass., 50, 1096 (1955)].

[2] = molecular target: T1, acyl CoA: cholesterol acyltransferase (ACAT-EC 2.3.1.26) (Oryctolagus cuniculus, UniProt A0A5F9CPP4); experiment: ACAT inhibition in microsomes from atherosclerotic rabbit thoracic aortas (Table 2); type: biochemical
T1 construct: microsomal preparations from atherosclerotic rabbit thoracic aorta (intimamedia); from tissue; host or cells: microsomes of atherosclerotic rabbit thoracic aorta (intima-media)
T1 sequence (A0A5F9CPP4 1-555): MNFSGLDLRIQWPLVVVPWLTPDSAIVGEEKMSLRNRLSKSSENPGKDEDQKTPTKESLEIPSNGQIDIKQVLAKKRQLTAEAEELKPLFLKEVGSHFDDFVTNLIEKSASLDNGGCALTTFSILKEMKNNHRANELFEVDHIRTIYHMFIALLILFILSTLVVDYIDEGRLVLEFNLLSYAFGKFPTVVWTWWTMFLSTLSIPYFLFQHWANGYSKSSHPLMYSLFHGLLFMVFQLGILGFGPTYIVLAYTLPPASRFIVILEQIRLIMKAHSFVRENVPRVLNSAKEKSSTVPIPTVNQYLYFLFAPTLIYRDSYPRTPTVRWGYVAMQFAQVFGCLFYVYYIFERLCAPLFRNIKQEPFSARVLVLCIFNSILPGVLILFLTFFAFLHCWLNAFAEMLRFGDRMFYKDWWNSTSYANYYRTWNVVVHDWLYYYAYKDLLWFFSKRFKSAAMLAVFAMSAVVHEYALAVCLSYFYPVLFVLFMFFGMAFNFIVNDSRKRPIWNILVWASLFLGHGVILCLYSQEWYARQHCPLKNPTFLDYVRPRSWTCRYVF

[3] = tested on: ACAT; details: rabbit arterial microsomes; Hudson H., Day A., Atherosclerosis (1982) 45, 109; cited from earlier work

Row | SMILES | HDL/LDL + VLDL Chol. ratio, activity as % variation vs. controls [1] | LDL + VLDL Chol., activity as % variation vs. controls [1] | Triglycerides, activity as % variation vs. controls [1] | Tot. Chol., activity as % variation vs. controls [1] | IC50 ([2]; microsomes from atherosclerotic rabbit thoracic aortas (intimamedia), limits p = 0.95) | potency in ACAT inhibition relative to Bezafibrate (times more potent) ([2]; ratio of IC50 values, vs. Bezafibrate) | inhibitory activity in vitro (in words) [3]
1 | CCOC(=O)C(C)(C)Oc1ccc(Cl)cc1 [Clofibrate, reference compound] | +18% | -19% | -22% | -11% |  |  | 
2 | CCOC(=O)C(C)(C)CCCOc1ccc2c(c1)C=C(c1nccn1C)C(C)O2 (stereo not drawn) [FCE 25086, ethyl 5-[2-methyl-3-(1-methyl-1H-imidazol-2-yl)-2H-1-benzopyran-6yl]oxy-2,2-dimethylpentanoate] | +135% | -55% | -53% | -14% |  |  | 
3 | CCOC(=O)C(C)(C)CCCOc1ccc2c(c1)C=C(c1nccn1C)CC2 [FCE 25390, ethyl 5-[5,6-dihydro-7-(1-methyl-1H-imidazol-2-yl)naphthalen-2yl]oxy-2,2-dimethylpentanoate] | +96% | -59% | -58% | -36% |  |  | 
4 | CCCC1Oc2ccc(OCCCC(C)(C)C(=O)OCC)cc2C=C1c1nccn1C (stereo not drawn) [FCE 25184, ethyl 5-[3-(1-methyl-1H-imidazol-2-yl)-2-n-propyl-2H-1-benzopyran-6-yl]oxy-2,2-dimethylpentanoate] |  |  |  |  | 1060 nM | about 500 times | 
5 | CC(C)(Oc1ccc(CCNC(=O)c2ccc(Cl)cc2)cc1)C(=O)O [Bezafibrate] |  |  |  |  |  |  | inhibitory activity in vitro (rabbit arterial microsomes) has been already demonstrated

Source: patent US4985440A, “Hypolipidaemic imidazol-2-yl-derivatives of bicyclic compounds” (priority 1988, dated 1991)
